Measured values as given in US10314816B2, “Antimicrobial compounds, compositions and methods of use thereof” (Wisconsin Alumni Research Foundation, priority 2012, dated 2019).

Legend:
C. crescentus CB15N = assay: Minimum biofilm eradication concentration (MBEC); assay type: cell-based, Caulobacter crescentus
Experimental: Determination of the minimum biofilm inhibitory concentration of growth (bMIC) and biofilm eradication concentration (MBEC). Overnight cultures of C. crescentus and S. aureus were grown and diluted 100-fold into appropriate nutrient media. Aliquots of the diluted suspension were transferred into wells of 96-well plates (150 μL/well). 2-fold serial dilutions were performed for compound-containing wells. For every experiment, three replicates for each compound concentration tested were included. After transferring aliquots of the suspension, the plates were closed with specialized lids that have protruding pins (Nunc STP System), and the plates were sealed using Parafilm®. The plates were incubated in a static incubator at 30° C. (C. crescentus) or 37° C. (S. aureus) for 24 hours. After the cells had formed biofilms on the surface of the pins, the pins were rinsed by dipping them in M2 (C. crescentus) or PBS (S. aureus) solutions. To rinse the pins, clean, sterile 96-well plates were used (aliquots of 200 μL/well); each rinse lasted 10 sec. After washing away planktonic cells loosely bound to biofilms, the pins were inserted into a 96-well plate that was pre-aliquoted with nutrient media containing antibiotics (2-fold dilutions, a final volume of 150 μL/well). The plates were sealed with Parafilm®, and incubated for 17 hours, and the bMIC was measured at the end of the incubation by visual inspection. After the bMIC run, the rinse steps were repeated to remove planktonic cells, and the pins were inserted into a 96-well plate that was pre-aliquoted with drug-free nutrient media (aliquots of 150 μL/well). The plates were sealed with Parafilm®, incubated for 24 hours, and the MBEC was measured at the end of the incubation by visual inspection.
After performing bMIC experiments, biofilms growing on the pins of the lid were transferred to nutrient media devoid of antibiotics to measure the minimum concentration of antibiotic that prevented planktonic growth from biofilms in antibiotic-free nutrient media (MBEC). MBEC indicates whether the exposure to antimicrobial agent used during the bMIC experiment sterilized biofilm-associated cells. […] CCCP was the only effective antibiotic against S. aureus biofilms. Since CCCP was not as effective as DCAP at killing stationary cells, it was hypothesized that this variability in efficacy of membrane-active drugs is in part caused by changes in membrane composition (i.e., membrane proteins and lipid content) at different developmental stages of bacterial cells. […]

B. subtilis cells = assay: Measurement of ΔΨ using DiOC2, flow cytometry; assay type: cell-based, Bacillus subtilis; details: 20 minutes of treatment, p<0.001
Experimental: Fluorescence microscopy and flow cytometry to measure ΔΨ. The fluorescent probe, 3,3′-diethyloxacarbocyanine iodide (DiOC2) was used to measure ΔΨ in DMSO and in compound-treated cells. To eliminate the possibility of an interaction between the probe and compounds, the fluorescence intensity of solutions of DiOC2 was measured in the presence and absence of the compounds as described in the art. To measure ΔΨ in B. subtilis cells, flow cytometry was used. Cell suspensions were labeled with 30 μM DiOC2 and filtered through a Nylon filter containing 60-μm diameter pores. The fluorescence of these cells was measured using a BD LSR II flow cytometer. The following instrument settings were used for detection: low flow rate, 488 nm excitation laser, 530/30 nm emission filter for green fluorescence, and 575/26 nm emission filter for red fluorescence. […] First, a gate was drawn around the region where cells were detected in the forward versus side scatter area plot. Gating enabled the exclusion of any non-cellular materials in the sample that the instrument detected. The ratio of red-to-green fluorescence was calculated for each particle within the gate using the software, and the resulting data was exported to GraphPad Prism to create box plots shown in FIG. 5. Statistical parameters were calculated using the Kruskal-Wallis non-parametric one-way analysis of variation (GraphPad InStat). […]

[1] = test system: rabbit red blood cells (RBC); assay: Rabbit red blood cell (RBC) hemolysis assay; assay type: cell-based
Experimental: Rabbit red blood cell (RBC) hemolysis assay. Rabbit RBCs from Lampire Biological Laboratories were used. Prior to preparing the RBCs, compound-containing PBS solutions were serially diluted into a 96-well plate (a final volume of 100 μL/well). The RBC lysis solution (Epicentre Biotechnology) was included as a positive control for hemolysis. For each assay, 1 mL of the RBC suspension was removed from the stock bottle and centrifuged for 2 minutes at 2000 rpm. The pelleted cells were resuspended in sterile PBS solution and centrifuged again. The cells were resuspended in PBS and diluted 5-fold into the same solution. 100 μL aliquots of RBCs were added into wells of a 96-well plate that contained an equal volume of a solution of compound in PBS. The plates were incubated for varying amounts of time depending on the microbial assay conditions to be emulated. For MIC-like conditions, plates were incubated for at least 17 hours at 30° C. or 37° C. For MSC-like conditions, the incubation time was either 2 hours or 6 hours at 30° C. or 37° C. During the incubation, un-lysed RBCs settled at the bottom of the wells. At the end of the incubation, 90 μL of the supernatant was transferred into the wells of a fresh 96-well plate, and the absorbance of the heme at 2=405 nm was measured.
To test the toxicity of DCAP against mammalian membranes, the hemolysis of rabbit red blood cells (RBC) was measured. These experiments were performed using conditions that closely mimicked the MIC and MSC assays. RBCs were treated with CCCP and DCAP at their MICs for the time periods used (17 hours) to determine the MIC of C. crescentus and S. aureus. After incubation, the absorbance of heme released from lysed RBCs was measured.
The MSC assay conditions were also reproduced to measure toxicity against RBCs. First, the minimum time required to obtain the MSC for DCAP treatment of C. crescentus (2 hours) and S. aureus (6 hours; data not shown) was determined.

[2] = compounds at their MICs for C. crescentus and S. aureus, 17 hours

SMILES	MBEC (C. crescentus CB15N) [µM]	ΔΨ (λ576/λ530 of DiOC2) (B. subtilis cells)	Hemolysis of rabbit RBCs ([1]; MSC assay conditions, 2 hours (C. crescentus) and 6 hours (S. aureus))	Hemolysis of rabbit RBCs [1, 2]	Hemolysis of rabbit RBCs ([1]; higher concentrations of DCAP (i.e., 50 μM), 17 hours)	Hemolysis of rabbit RBCs ([1]; high concentration, MSC conditions for S. aureus (FIG. 8C))
OCC(CO)(CO)NCC(O)Cn1c2ccc(Cl)cc2c2cc(Cl)ccc21 (stereo not drawn) [DCAP, 2-((3-(3,6-dichloro-9H-carbazol-9-yl)-2-hydroxypropyl)amino)-2-(hydroxymethyl)propane-1,3-diol]	40	significant decrease in λ576/λ530	no significant toxicity	did not significantly disrupt RBC membranes	moderately toxic to RBCs	
N#CC(C#N)=NNc1cccc(Cl)c1 [CCCP, carbonyl cyanide m-chlorophenyl hydrazone]	5	significant decrease in λ576/λ530		did not significantly disrupt RBC membranes		toxic to RBCs at a high concentration
